Assay results taken from US20240245639A1, “Dermal Application of Retinoic Acid Receptor Agonists for Amelioration of Hypertrophic Scar” (Northwestern University, priority 2023, published 2024).

Assays:
[1] = tested on: cellular retinoic acid binding protein (CRABP); details: cited from earlier work
[2] = tested on: primary human foreskin fibroblasts; assay: RNA-seq expression profiling of Ch55 effects; assay type: cell-based; details: 1,000 nM Ch55, 24 hours
From the text: We then used goseq (Young et al., 2010) to query the KEGG database with the […] signature and the TGF-β-antagonizing signature. Extraction of KEGG annotations and associated pathways enriched in the […] signature (FIG. 3D) tended to refer to either general categories (e.g. “proteasome,” “cell cycle,” “phagosome”) or categories relevant to other specific cell types (e.g. “Epithelial cell signaling in H. pylori infection,” “Collecting duct acid secretion,” “Axon guidance”). […] We next computed normalized gene expression values for the DEGs extracted from the TGF-β-antagonizing signature and overlaid Ch55-induced relative expression effects on potentially fibrosis-relevant pathways of interest using Pathview Web (Luo et al., 2017).
Purified RNA harvested from primary cultured human foreskin fibroblasts pooled from three donors underwent TruSeq stranded mRNA-seq library preparation at the Northwestern University NUSeq core facility, followed by paired-end sequencing on an Illumina HiSeq 4000. Raw FASTQ files were imported into Galaxy (Jalili et al., 2020). Reads were trimmed using Trimmomatic (Bolger et al., 2014) utilizing default parameters, prior to aligning to the human genome (hg38 construction) using HISAT2 (Kim et al., 2019). Reads were assigned to genomic features using featureCounts (Liao et al., 2014), and differential expression among groups was determined, and principal component analysis constructed, using DESeq2 (Love et al., 2014) with multiple comparison adjustment performed by the Benjamini-Hochberg correction (Benjamini and Hochberg, 1995). Differentially-expressed genes were defined as false discovery rate-adjusted (FDR) P<0.05. Pathway analysis on KEGG databases (Kanehisa and Goto, 2000) were performed using goseq (Young et al., 2010) and Pathview Web (Luo et al., 2017). Z-scores were calculated from normalized count values and used to construct heatmaps. FPKM values were estimated using Stringtie (Pertea et al., 2015). Raw RNA-sequence data are available through the National Center for Biotechnology Information Sequence Read Archive accession number PRJNA921850, the contents of which is incorporated by reference in its entirety.

[3] = tested on: primary human HTS fibroblasts; assay: Collagen I deposition in hypertrophic scar fibroblasts (Western blot, immunofluorescence); assay type: cell-based; details: HTS fibroblasts, 1,000 nM Ch55, presence and absence of TGF-β1, 48 hours
Protocol: Since overproduction of collagen is characteristic of fibroblasts in tissue fibrosis, including hypertrophic scar and keloid, we wished to determine whether Ch55 also affects deposition of collagen I by these fibroblasts.
Cells cultured on glass coverslips were fixed in 4% paraformaldehyde for 30 minutes at room temperature. Cells were blocked in 10% normal goat serum and incubated overnight at 4° C. in solutions of the following primary antibodies: Rabbit monoclonal α-human α-SMA (1:500 dilution, catalog #192455, Cell Signaling Technology, Danvers M A) or mouse α-human COL1A1 (1:1000 dilution, catalog #M-38c, DSHB, Iowa City, IA). The following day, cells were incubated in 1:200 diluted solutions of goat-α-rabbit IgG or donkey-α-mouse IgG Alexafluor 488-conjugated secondary antibodies (A11034 or A21202, Invitrogen) containing Alexafluor 568-conjugated phalloidin (A12380, Invitrogen) for 2 hours in the dark at room temperature, before a 20 minute counterstain in 500 ng/mL DAPI. […]
Harvested scar tissues were incubated in 0.5M ammonium thiocyanate for 20 minutes, followed by mechanical separation of dermis and epidermis using a dissecting microscope. […] Protein concentrations of cell culture and tissue samples were determined using a DC protein assay (BioRad). […]

CC(C)(C)c1cc(C(=O)/C=C/c2ccc(C(=O)O)cc2)cc(C(C)(C)C)c1 [Ch55]
affinity for CRABP [1]: low affinity
genes known to be targets or regulators of retinoic acid signaling (RNA-seq) [2]: broad upregulation
myofibroblast marker genes (RNA-seq) [2]: significantly downregulated
LRRC15+/Lrrc15+ signature-enriched genes significantly downregulated (number of genes) ([2]; RNA-seq): 67/117
LRRC15+/Lrrc15+ signature-enriched genes significantly downregulated (share of genes) ([2]; RNA-seq): ~57%
collagen I deposition (Western blot, immunofluorescence) [3]: dramatic reduction
